The text below walks through data of patent publication US20190345138A1, “HETEROCYCLIC AMIDES AS KINASE INHIBITORS” (GlaxoSmithKline Intellectual Property Development Limited, priority 2016, published 2019).

pIC50: −log10 of the molar value. Values joined by “and” are separate entries in the source; they are usually repeats but may differ in a detail not shown here. Identical values can stand only once.

In one assay the target is T1, RIP1 kinase (Homo sapiens, UniProt Q13546).
T1 sequence (Q13546 1-375 limits assumed): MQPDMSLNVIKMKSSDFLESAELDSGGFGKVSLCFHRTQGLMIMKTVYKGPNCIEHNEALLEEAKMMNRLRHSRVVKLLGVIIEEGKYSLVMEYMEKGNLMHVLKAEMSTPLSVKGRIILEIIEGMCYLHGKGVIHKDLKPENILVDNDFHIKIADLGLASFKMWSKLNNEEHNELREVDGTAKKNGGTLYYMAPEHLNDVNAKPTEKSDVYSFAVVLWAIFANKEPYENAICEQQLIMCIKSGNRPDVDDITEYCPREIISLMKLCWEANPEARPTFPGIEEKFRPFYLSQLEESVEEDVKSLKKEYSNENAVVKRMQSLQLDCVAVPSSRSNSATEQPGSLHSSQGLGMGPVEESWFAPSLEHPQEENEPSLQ
The experiment in a line: fluorescent polarization based binding assay. To be noted: mean of a minimum of 2 experiments. An excerpt: A fluorescent polarization based binding assay was used to assess the activity of the compounds of this invention, the details of which are disclosed in International Patent Appln. No. PCT/IB2014/059004, now, International Patent Appln. Pub.
As for `N#Cc1cnc(N2CCC(C(=O)N3N=CCC3c3ccccc3)CC2)nc1` (racemic) [Example 2, 2-(4-(5-phenyl-4,5-dihydro-1H-pyrazole-1-carbonyl)piperidin-1-yl)pyrimidine-5-carbonitrile], the pIC50 is 7.50 to 9.00.

`COc1ccnc(N2CCC(C(=O)N3N=CCC3c3ccccc3)CC2)n1` (racemic) [Example 3, (1-(4-methoxypyrimidin-2-yl)piperidin-4-yl)(5-phenyl-4,5-dihydro-1H-pyrazol-1-yl)methanone] showed a pIC50 of 7.50 to 9.00.

`COc1cnc(N2CCC(C(=O)N3N=CCC3c3ccccc3)CC2)nc1` (racemic) [Example 7, (1-(5-methoxypyrimidin-2-yl)piperidin-4-yl)(5-phenyl-4,5-dihydro-1H-pyrazol-1-yl)methanone]: the pIC50 is 7.50 to 9.00.

As for `COC(=O)c1cnc(N2CCC(C(=O)N3N=CC[C@H]3c3ccccc3)CC2)nc1` [Example 10, (S)-methyl 2-(4-(5-phenyl-4,5-dihydro-1H-pyrazole-1-carbonyl)piperidin-1-yl)pyrimidine-5-carboxylate], the pIC50 is 7.50 to 9.00.

`NC(=O)c1ccc(N2CCC(C(=O)N3N=CC[C@H]3c3ccccc3)CC2)nc1` [Example 30, (S)-6-(4-(5-phenyl-4,5-dihydro-1H-pyrazole-1-carbonyl)piperidin-1-yl)nicotinamide] gave a pIC50 of 7.50 to 9.00.

For the molecule `O=C(C1CCN(c2nc(=O)c3cn[nH]c3[nH]2)CC1)N1N=CC[C@H]1c1ccccc1` [Example 37, (S)-6-(4-(5-phenyl-4,5-dihydro-1H-pyrazole-1-carbonyl)piperidin-1-yl)-1H-pyrazolo[3,4-d]pyrimidin-4(7H)-one], the pIC50 was 7.50 to 9.00.

In the case of `N#Cc1cccc([C@@H]2CC=NN2C(=O)C2CCN(c3ccn4nccc4n3)CC2)c1` [Example 62, (S)-3-(1-(1-(pyrazolo[1,5-a]pyrimidin-5-yl)piperidine-4-carbonyl)-4,5-dihydro-1H-pyrazol-5-yl)benzonitrile], the pIC50 is 7.50 to 9.00.

In the case of `NC(=O)c1cnc(N2CCC(C(=O)N3N=CC[C@H]3c3ccccc3)CC2)cn1` [Example 63, (S)-5-(4-(5-phenyl-4,5-dihydro-1H-pyrazole-1-carbonyl)piperidin-1-yl)pyrazine-2-carboxamide], the pIC50 was 7.50 to 9.00.

`CCOC(=O)c1coc(N2CCC(C(=O)N3N=CC[C@H]3c3ccccc3)CC2)n1` [Example 65, (S)-ethyl 2-(4-(5-phenyl-4,5-dihydro-1H-pyrazole-1-carbonyl)piperidin-1-yl)oxazole-4-carboxylate] showed a pIC50 of 7.50 to 9.00.

`COc1nccc(N2CCC(C(=O)N3N=CC[C@H]3c3cccc(C#N)c3)CC2)n1` [Example 75, (S)-3-(1-(1-(2-methoxypyrimidin-4-yl)piperidine-4-carbonyl)-4,5-dihydro-1H-pyrazol-5-yl)benzonitrile] showed a negative-log IC50 (pIC50) of 7.50 to 9.00.

`O=C(C1CCN(c2ccn3nccc3n2)CC1)N1N=CC[C@H]1c1cc(F)cc(F)c1` [Example 90, (S)-(5-(3,5-difluorophenyl)-4,5-dihydro-1H-pyrazol-1-yl)(1-(pyrazolo[1,5-a]pyrimidin-5-yl)piperidin-4-yl)methanone]: the pIC50 was 7.50 to 9.00 and 8.00 to 9.00.

On to `CCOC(=O)c1cnc(N2CCC(C(=O)N3N=CC[C@H]3c3cc(F)cc(F)c3)CC2)o1` [Example 107, (S)-ethyl 2-(4-(5-(3,5-difluorophenyl)-4,5-dihydro-1H-pyrazole-1-carbonyl)piperidin-1-yl)oxazole-5-carboxylate], for which the pIC50 is 7.50 to 9.00.

`COc1cc(N2CCC(C(=O)N3N=CC[C@H]3c3cncc(F)c3)CC2)ncn1` [Example 113, (S)-(5-(5-fluoropyridin-3-yl)-4,5-dihydro-1H-pyrazol-1-yl)(1-(6-methoxypyrimidin-4-yl)piperidin-4-yl)methanone] showed a pIC50 of 7.50 to 9.00.

`CSc1nccc(N2CCC(C(=O)N3N=CC[C@H]3c3cncc(F)c3)CC2)n1` [Example 114, (S)-(5-(5-fluoropyridin-3-yl)-4,5-dihydro-1H-pyrazol-1-yl)(1-(2-(methylthio)pyrimidin-4-yl)piperidin-4-yl)methanone]: the pIC50 was 7.50 to 9.00.

As for `CC(=O)Nc1cc(N2CCC(C(=O)N3N=CC[C@H]3c3cc(F)cc(F)c3)CC2)ncn1` [Example 120, (S)-N-(6-(4-(5-(3,5-difluorophenyl)-4,5-dihydro-1H-pyrazole-1-carbonyl)piperidin-1-yl)pyrimidin-4-yl)acetamide], the pIC50 is 7.50 to 9.00.

Molecule `NC(=O)c1coc(N2CCC(C(=O)N3N=CC[C@H]3c3ccccc3)CC2)n1` [Example 136, (S)-2-(4-(5-phenyl-4,5-dihydro-1H-pyrazole-1-carbonyl)piperidin-1-yl)oxazole-4-carboxamide] gave a pIC50 of 7.50 to 9.00.

With `O=C(C1CCN(c2nccc(-c3nn[nH]n3)n2)CC1)N1N=CC[C@H]1c1ccccc1` [Example 148, (S)-(1-(4-(2H-tetrazol-5-yl)pyrimidin-2-yl)piperidin-4-yl)(5-phenyl-4,5-dihydro-1H-pyrazol-1-yl)methanone], the pIC50 is 7.50 to 9.00 and 8.00 to 9.00.

With `O=C(C1CCN(c2ncc(F)c(OCc3nn[nH]n3)n2)CC1)N1N=CC[C@H]1c1ccccc1` [Example 154, (S)-(1-(4-((2H-tetrazol-5-yl)methoxy)-5-fluoropyrimidin-2-yl)piperidin-4-yl)(5-phenyl-4,5-dihydro-1H-pyrazol-1-yl)methanone], the pIC50 was 7.50 to 9.00 and 8.00 to 9.00.

As for `O=C1NCC[C@@H]1c1nc(N2CCC(C(=O)N3N=CC[C@H]3c3cncc(F)c3)CC2)ncc1F` [Example 166, (R)-3-(5-fluoro-2-(4-((S)-5-(5-fluoropyridin-3-yl)-4,5-dihydro-1H-pyrazole-1-carbonyl)piperidin-1-yl)pyrimidin-4-yl)pyrrolidin-2-one], the pIC50 was 7.50 to 9.00.

`NC(=O)COc1nc(N2CCC(C(=O)N3N=CC[C@H]3c3ccccc3)CC2)ncc1F` [Example 167, (S)-2-((5-fluoro-2-(4-(5-phenyl-4,5-dihydro-1H-pyrazole-1-carbonyl)piperidin-1-yl)pyrimidin-4-yl)oxy)acetamide] showed a pIC50 of 7.50 to 9.00.

In the next assay the test system is human monocytic leukemia U937 cells. Put plainly: necroptosis assay in U937 cells. The assay is classed as cell-based. To be noted: Homo sapiens, U-937, U937 cells; viability by cellular ATP (Cell Titer-Glo); read-out: pIC50, inhibited necrosis in U937 cells (converted). The method, then: The efficacy of RIP1 inhibitors can be tested […] in vitro using a human monocytic leukemia U937 or mouse L929 fibrosarcoma cells in a necroptosis assay. As determined using the method described in S. He et al., Cell, 137(6):1100-1111 (2009) and International Patent Appln. No. PCT/IB2014/059004, now, International Patent Appln. Pub.
Viability was measured by quantitating cellular levels of ATP using the Cell Titer-Glo kit. All data are means±standard deviation of the mean.
Take `N#Cc1cnc(N2CCC(C(=O)N3N=CCC3c3ccccc3)CC2)nc1` (racemic) [Example 2, 2-(4-(5-phenyl-4,5-dihydro-1H-pyrazole-1-carbonyl)piperidin-1-yl)pyrimidine-5-carbonitrile]: the IC50 was 1 to 100 nM.

As for `COc1ccnc(N2CCC(C(=O)N3N=CCC3c3ccccc3)CC2)n1` (racemic) [Example 3, (1-(4-methoxypyrimidin-2-yl)piperidin-4-yl)(5-phenyl-4,5-dihydro-1H-pyrazol-1-yl)methanone], the IC50 was 1 to 100 nM.

With `O=C(C1CCN(c2nccc(-c3ccccc3)n2)CC1)N1N=CCC1c1ccccc1` (racemic) [Example 4, (5-phenyl-4,5-dihydro-1H-pyrazol-1-yl)(1-(4-phenylpyrimidin-2-yl)piperidin-4-yl)methanone], the IC50 was 1 to 100 nM.

Take `N#Cc1ccnc(N2CCC(C(=O)N3N=CCC3c3ccccc3)CC2)n1` (racemic) [Example 5, 2-(4-(5-phenyl-4,5-dihydro-1H-pyrazole-1-carbonyl)piperidin-1-yl)pyrimidine-4-carbonitrile]: the IC50 is 1 to 100 nM.

Turning to `COc1cnc(N2CCC(C(=O)N3N=CCC3c3ccccc3)CC2)nc1` (racemic) [Example 7, (1-(5-methoxypyrimidin-2-yl)piperidin-4-yl)(5-phenyl-4,5-dihydro-1H-pyrazol-1-yl)methanone], the IC50 was 1 to 100 nM.

Regarding `N#Cc1ccc(N2CCC(C(=O)N3N=CC[C@H]3c3cc(F)cc(F)c3)CC2)nn1` [Example 94, (S)-6-(4-(5-(3,5-difluorophenyl)-4,5-dihydro-1H-pyrazole-1-carbonyl)piperidin-1-yl)pyridazine-3-carbonitrile], the IC50 was 1 to 100 nM.

Take `N#Cc1cnc(N2CCC(C(=O)N3N=CC[C@H]3c3cc(F)cc(F)c3)CC2)cn1` [Example 95, (S)-5-(4-(5-(3,5-difluorophenyl)-4,5-dihydro-1H-pyrazole-1-carbonyl)piperidin-1-yl)pyrazine-2-carbonitrile]: the IC50 is 1 to 100 nM.

As to `N#Cc1cc(N2CCC(C(=O)N3N=CC[C@H]3c3cncc(F)c3)CC2)ncn1` [Example 111, (S)-6-(4-(5-(5-fluoropyridin-3-yl)-4,5-dihydro-1H-pyrazole-1-carbonyl)piperidin-1-yl)pyrimidine-4-carbonitrile], the IC50 is 1 to 100 nM.

`O=C(NC1CC1)c1ccnc(N2CCC(C(=O)N3N=CC[C@H]3c3ccccc3)CC2)n1` [Example 125, (S)—N-cyclopropyl-2-(4-(5-phenyl-4,5-dihydro-1H-pyrazole-1-carbonyl)piperidin-1-yl)pyrimidine-4-carboxamide]: the IC50 was 1 to 100 nM.

Turning to `Cc1nnc(-c2cc(N3CCC(C(=O)N4N=CC[C@H]4c4ccccc4)CC3)ncn2)o1` [Example 129, (S)-(1-(6-(5-methyl-1,3,4-oxadiazol-2-yl)pyrimidin-4-yl)piperidin-4-yl)(5-phenyl-4,5-dihydro-1H-pyrazol-1-yl)methanone], the IC50 was 1 to 100 nM.

For the molecule `O=C1NCCC1c1nc(N2CCC(C(=O)N3N=CC[C@H]3c3cncc(F)c3)CC2)ncc1F` (stereo partly drawn) [Example 151, 3-(5-fluoro-2-(4-((S)-5-(5-fluoropyridin-3-yl)-4,5-dihydro-1H-pyrazole-1-carbonyl)piperidin-1-yl)pyrimidin-4-yl)pyrrolidin-2-one], the IC50 was 1 to 100 nM.

For `NC(=O)c1ncnc(N2CCC(C(=O)N3N=CC[C@H]3c3cncc(F)c3)CC2)c1F` [Example 160, (S)-5-fluoro-6-(4-(5-(5-fluoropyridin-3-yl)-4,5-dihydro-1H-pyrazole-1-carbonyl)piperidin-1-yl)pyrimidine-4-carboxamide], the IC50 is 1 to 100 nM.
